Patent publication US20260026506A1, “COMPOSITION FOR DISSOLVING AN OILY COMPOUND IN WATER” (AFFIX LABS OY, priority 2022, published 2026)

How the values were obtained:
[1] = Dissolving DEET with the composition of the invention (Example 3, general procedure); assay type: physicochemical; conditions: composition of Table 3
Protocol: A general procedure to prepare the solution of an active compound in the composition of the invention is applied: • Deionized water was brought in a beaker equipped with a stirring bar and placed on a stirring plate. The cosolvent was added to the solution whilst stirring. Subsequently, the surfactant was added, and before the surfactant was dissolved also icaridin was added. Stirring is stopped when all components of the composition are dissolved.
The same test was applied to determine if the composition of the invention is also able to dissolve alternative water-insoluble compounds. In this experiment icaridin was switched for DEET and the general procedure was applied.

[2] = Dissolving icaridin in water with individual components only (Example 2, visual result); assay type: physicochemical; conditions: icaridin 5.0 wt.%
Protocol: In this experiment, it is tested if the combination of the cosolvent and the surfactant is required to dissolve icaridin or if individual components can also dissolve icaridin in water.
Deionized water was brought in a beaker equipped with a stirring bar and placed on a stirring plate. The (when applicable) cosolvent was added to the solution whilst stirring. Subsequently (when applicable) the surfactant was added, before this dissolved also (when applicable) icaridin was added. Stirring is stopped when everything is dissolved.

| Amount dissolved in water by the composition of the invention [1] | Structure (SMILES) | Solubility of icaridin in water (conclusion from Table 2) [2] |
| --- | --- | --- |
| 5 wt. % | CCN(CC)C(=O)c1cccc(C)c1 [DEET, N,N-diethyl-m-toluamide] | – |
| – | CCC(C)OC(=O)N1CCCCC1CCO (centres unmarked) [icaridin] | only soluble in water using the combination cosolvent and surfactants |
